Results as given in article PMC7696940, “Effects of Rationally Designed Physico-Chemical Variants of the Peptide PuroA on Biocidal Activity towards Bacterial and Mammalian Cells” (International Journal of Molecular Sciences, 2020).
Values after ≈ are worked out from the molar mass of the structure shown. Where no end group is shown, it is not given here.

Legend:
E. coli and S. aureus = assay: Salt tolerance (MICs under 0-150 mM NaCl, summary); format: cell-based, Escherichia coli; Staphylococcus aureus; parameters: key: Up to 50 mM: no effects on antibacterial activity up to 50 mM NaCl but increase in the MICs for E. coli and S. aureus at 100 mM NaCl; Intolerant: not resistant to salt effects even at 50 mM NaCl; Up to 150 mM: no effects on antibacterial activity up to 150 mM NaCl; details: MICs for E. coli and S. aureus in MHB with 0, 50, 100 or 150 mM NaCl
Experimental: (§1) The activity of peptides was determined against the Gram-positive Staphylococcus aureus (ATCC 25923), and the Gram-negative Escherichia coli (ATCC 25922) and Pseudomonas aeruginosa (ATCC 9027) bacteria. Selected peptides were also tested against two clinical isolates of methicillin-resistant Staphylococcus aureus (MRSA), M173525 and M180920, kindly provided by Dr P. B. Ward (Microbiology Department, Austin and Repatriation Medical Centre, Heidelberg West, Victoria, Australia). The Minimum inhibitory concentration (MIC) of peptides was determined by the microtitre broth dilution method, as described in Phillips et al.. Briefly, bacteria were grown in Mueller-Hinton Broth (MHB) at 37 °C overnight with shaking (200 rpm). The cultures were adjusted to 0.5 McFarland turbidity standard (approximately 1 × 10^8 colony forming units (CFU)/mL), then diluted 1:100 in MHB (1 × 10^6 CFU/mL). A total of 75 μL of these suspensions were mixed with 25 μL of peptide solutions (final concentrations 250 to 0.5 μg/mL) and the microtitre plates incubated overnight at 37 °C. Positive growth controls (inoculum and MHB, with no peptide) and sterility controls (0.01% glacial acetic) were also included. Post-incubations, the absorbance of cultures at 595 nm was measured using a microplate reader (POLARstar Omega, Germany). […] To evaluate salt sensitivity of peptides up to physiological levels (150 mM NaCl), overnight cultures of S. aureus and E. coli adjusted to 0.5 McFarland turbidity standard were diluted 1:100 in MHB containing 0, 50, 100 or 150 mM NaCl, and the MICs of peptides determined as above. All tests were conducted in triplicate. The results are shown as the mode of values obtained.

C. albicans FRR 5580 = format: cell-based, Candida albicans; details: PDB, overnight; mode of three independent experiments
Experimental: The assay was carried out as per Alfred et al.. Candida albicans (FRR 5580) was grown in potato dextrose broth (PDB; Difco-BD, Bergen County, NJ, USA) overnight at 30 °C with shaking (200 rpm) until exponential phase, then adjusted to 0.5 McFarland turbidity standard (approximately 1 × 10^6 cells/mL) and diluted 1:200 with PDB to 0.5 − 2 × 10^3 cells/mL. Peptides in 25 μL volumes were mixed with 75 μL of the yeast suspensions. The controls were included as above. The plates were incubated overnight and absorbance was recorded. All the tests were conducted in triplicate.

P. aeruginosa ATCC9027 = format: cell-based, Pseudomonas aeruginosa; details: MHB, 37 °C overnight, A595; mode of three independent experiments
Experimental: as §1

E. coli ATCC25922 = format: cell-based, Escherichia coli; details: MHB; for MIC E. coli, No NaCl: 0 mM NaCl; for MIC E. coli, No NaCl / MIC E. coli, With 50mM NaCl / MIC E. coli, With 100mM NaCl / MIC E. coli, With 150mM NaCl: triplicate, mode; for MIC E. coli ATCC25922: 37 °C overnight, A595, mode of three independent experiments
Experimental: as §1

HeLa cells = format: cell-based, human; details: MTT, 24 h, peptide up to 250 µg/mL; concentration causing 50% cell growth inhibition; mean of triplicate assays
Experimental: (§2) Cytotoxicity to human cervical carcinoma HeLa cells and mouse fibroblastic NIH-3T3 cells was determined using the MTT assay as per Scudiero et al. with minor modifications. The cells were maintained in Dulbecco’s Modified Eagle Medium (DMEM) with 10% foetal bovine serum (FBS) and 1% penicillin G in a humidified incubator (Heraeus Hera Cell incubator) at 37 °C with 5% CO2. They were seeded in 96-well microtiter plates at 1 × 10^4 cells/well and allowed to adhere for 24 h in the incubator. The medium was removed, and adherent cells were washed with PBS. Fresh media containing serially diluted peptides in PBS (final concentrations 4 to 250 µg/mL) were added and the cells incubated for 24 h. Cells without peptides were used as negative controls. Following incubations, the medium was removed, and adherent cells were washed with PBS. 150 µL of MTT (diluted to 0.33 mg/mL in DMEM) and the plates incubated for 3 h. The precipitated formazan was dissolved in 100 µL of DMSO and its absorbance measured at 570 nm. Cell viability was determined as: (OD570 nm peptide treated cells/(OD570 nm untreated cells) × 100. Positive cytotoxicity was defined as peptide concentration that causes 50% growth inhibition in a cell line (IC50). All tests were carried out in triplicate.

S. aureus ATCC25923 = format: cell-based, Staphylococcus aureus; details: MHB; for MIC S. aureus, No NaCl: 0 mM NaCl; for MIC S. aureus, No NaCl / MIC S. aureus, With 50mM NaCl / MIC S. aureus, With 100mM NaCl / MIC S. aureus, With 150mM NaCl: triplicate, mode; for MIC S. aureus ATCC25923: 37 °C overnight, A595, mode of three independent experiments
Experimental: as §1

NIH-3T3 cells = assay: Cytotoxicity, MTT assay; format: cell-based, mouse; details: 24 h; for IC50 NIH-3T3: peptide up to 250 µg/mL, concentration causing 50% cell growth inhibition, mean of triplicate assays
Experimental: as §2

[1] = system: porcine trypsin and proteinase K; assay: Proteases stability assay; format: in vitro ADME, porcine; Tritirachium album; details: 1000 µg peptide with 50 µg protease (20:1 w/w), porcine trypsin or proteinase K, PBS pH 7.4, 37 °C, 3 h; read-out activity of supernatant on E. coli and S. aureus; triplicate
Experimental: The effect of two well-studied proteases, porcine trypsin and proteinase K from Tritirachium album, on the activity of peptides was investigated as per Carmona et al.. Briefly, 1000 µg of a peptide was incubated with 50 µg of a protease (20:1 w/w) at 37 °C for 3 h in phosphate buffered saline PBS (pH 7.4). The enzyme activity was then terminated by heating (70 °C, 5 min) and the samples centrifuged at 12,000× g. The activity of the supernatant on E. coli and S. aureus was tested as above, in triplicate.

[2] = system: pBlueScript SK+ plasmid DNA; assay: In vitro DNA-binding assay (gel retardation); details: 100 ng pBlueScript SK+, peptide 8-500 µg/mL, 1 h room temperature, 1% agarose
Experimental: The ability of peptides to bind to purified DNA (indicative of in vivo DNA binding potential) was tested by the modified gel retardation assay developed by Alfred et al.. The DNA of pBlueScript SK+ (100 ng) was incubated with peptides (to final concentrations of 8, 16, 32, 64, 125, 250 or 500 µg/mL) in 15 µL volumes made with sterile MilliQ water, the held at room temperature for 1h. Loading dye was added to each sample and the samples electrophoresed on 1% agarose gels. The gels were then immersed in ethidium bromide ([…]) then visualized and imaged

Row | Compound | Salt Tolerance (E. coli and S. aureus) | MIC C. albicans FRR 5580 (C. albicans FRR 5580) [µg/mL] | MIC P. aeruginosa ATCC9027 (P. aeruginosa ATCC9027) [µg/mL] | MIC E. coli, No NaCl (E. coli ATCC25922) [µg/mL] | MIC E. coli, With 50mM NaCl (E. coli ATCC25922) [µg/mL] | MIC E. coli, With 100mM NaCl (E. coli ATCC25922) [µg/mL] | MIC E. coli, With 150mM NaCl (E. coli ATCC25922) [µg/mL] | IC50 HeLa (HeLa cells) [µg/mL] | MIC S. aureus, No NaCl (S. aureus ATCC25923) [µg/mL] | MIC S. aureus, With 50mM NaCl (S. aureus ATCC25923) [µg/mL] | MIC S. aureus, With 100mM NaCl (S. aureus ATCC25923) [µg/mL] | MIC S. aureus, With 150mM NaCl (S. aureus ATCC25923) [µg/mL] | IC50 NIH-3T3 (NIH-3T3 cells) [µg/mL] | MIC E. coli ATCC25922 (E. coli ATCC25922) [µg/mL] | MIC S. aureus ATCC25923 (S. aureus ATCC25923) [µg/mL] | Protease Stability [1] | Cytotoxicity to NIH-3T3 mouse fibroblasts (in words) (NIH-3T3 cells; up to 250 µg/mL) | Binding to DNA in vitro (concentration inhibiting plasmid migration) [2] [µg/mL]
1 | RKRWWRWWKWWKR-NH2 [dP1, diastereomeric counterpart of P1] | Up to 150 mM | 64 | 16 | 16 | 16 | 16 | 16 | 125 | 16 | 16 | 16 | 16 | 250 |  |  |  |  | 
2 | CC(C)[C@H](NC(=O)[C@@H]1CCCN1C(=O)[C@@H](N)Cc1ccccc1)C(=O)N[C@H](C(=O)N[C@@H](Cc1c[nH]c2ccccc12)C(=O)N[C@@H](CCCNC(=N)N)C(=O)N[C@@H](Cc1c[nH]c2ccccc12)C(=O)N[C@@H](Cc1c[nH]c2ccccc12)C(=O)N[C@@H](CCCCN)C(=O)N[C@@H](Cc1c[nH]c2ccccc12)C(=O)N[C@@H](Cc1c[nH]c2ccccc12)C(=O)N[C@@H](CCCCN)C(=O)NCC(=O)O)[C@@H](C)O [PuroA-OH] | Intolerant | 250 (≈ 134 µM) | 125 (≈ 67.1 µM) | 32 (≈ 17.2 µM) | 64 (≈ 34.3 µM) | > 250 | > 250 | >250 | 64 (≈ 34.3 µM) | 125 (≈ 67.1 µM) | > 250 | > 250 | >250 | 32 (≈ 17.2 µM) | 64 (≈ 34.3 µM) | Unstable | no cytotoxicity | 
3 | RWWKWW-NH2 [Peptide R6] | Intolerant | 64 | 32 | 32 | 64 | 250 | > 250 | >250 | 16 | 32 | 250 | > 250 | 250 | 32 | 16 | Unstable |  | 
4 | RWWKWWK-NH2 [Peptide R7] | Intolerant | 64 | 32 | 8 | 32 | 250 | > 250 | >250 | 16 | 32 | 250 | > 250 | 250 | 8 | 16 | Unstable |  | 
5 | WRWWKWW-NH2 [dW7, diastereomeric counterpart of W7] | Up to 150 mM | 64 | 16 | 8 | 8 | 8 | 8 | 125 | 8 | 8 | 8 | 8 | >250 | 8 | 8 |  |  | ≥ 32
6 | CC(C)[C@H](NC(=O)[C@@H]1CCCN1C(=O)[C@@H](N)Cc1ccccc1)C(=O)N[C@H](C(=O)N[C@@H](Cc1c[nH]c2ccccc12)C(=O)N[C@@H](CCCNC(=N)N)C(=O)N[C@@H](Cc1c[nH]c2ccccc12)C(=O)N[C@@H](Cc1c[nH]c2ccccc12)C(=O)N[C@@H](CCCCN)C(=O)N[C@@H](Cc1c[nH]c2ccccc12)C(=O)N[C@@H](Cc1c[nH]c2ccccc12)C(=O)N[C@@H](CCCCN)C(=O)NCC(=O)NCCCC[C@@H](NC(=O)CNC(=O)[C@H](CCCCN)NC(=O)[C@H](Cc1c[nH]c2ccccc12)NC(=O)[C@H](Cc1c[nH]c2ccccc12)NC(=O)[C@H](CCCCN)NC(=O)[C@H](Cc1c[nH]c2ccccc12)NC(=O)[C@H](Cc1c[nH]c2ccccc12)NC(=O)[C@H](CCCNC(=N)N)NC(=O)[C@H](Cc1c[nH]c2ccccc12)NC(=O)[C@@H](NC(=O)[C@@H](NC(=O)[C@@H]1CCCN1C(=O)[C@@H](N)Cc1ccccc1)C(C)C)[C@@H](C)O)C(N)=O)[C@@H](C)O [Di-PuroA] | Intolerant |  |  |  |  |  |  |  |  |  |  |  |  |  |  | Unstable |  | 
7 | WWRWWKWW-NH2 [dWW, diastereomeric counterpart of WW] | Up to 150 mM | 64 | 32 | 8 | 8 | 8 | 8 | 125 | 8 | 8 | 8 | 8 | 250 | 8 | 8 |  |  | 
